Assay results: paper PMC13126677 (Journal of Medicinal Chemistry, 2026)
Like-named read-outs stand apart in the source and are kept apart here.

Legend:
[1] = test system: SVMP activity of Echis romani venom; details: read-out: Inhibition of SVMP enzymatic activity EC50 ERO; E. romani venom; mean of n ≥ 3, range in brackets; listed as 23 (DC-174)
Description: (§1) Throughout our medicinal chemistry campaign, compounds were evaluated for their ability to inhibit enzymatic SVMP toxin activity in vitro using a previously described fluorescent-based substrate cleavage assay against five medically important viper venoms, namely Echis romani (Roman’s carpet viper, West Africa), Crotalus atrox (Western diamondback rattlesnake, North America), Calloselasma rhodostoma (Malayan pit viper, South East Asia), Bothrops jararaca (jararaca, South America) and Bitis arietans (puff adder, Africa).
(§2) Compounds of interest were stamped onto 384-well plates at a volume of 0.91 μL at a concentration of 1 mM in 100% DMSO (D2650, Sigma-Aldrich). Positive and negative control wells were stamped with 0.91 μL of 100% DMSO. To the test wells and the venom-only positive control wells, 15 μL of venom diluted to 0.066 μg/mL in PBS was added, giving a final amount of 1 μg/well. In the no venom negative control wells, 15 μL of PBS was added. The plates were then sealed, span briefly in a Platefuge (C2000, Benchmark Scientific) and incubated at 37 °C for 25 min to allow venom-inhibitor interaction. […] Dose response plates were conducted identically and the % inhibition values at each dose were used to draw EC50 curves to estimate the EC50 value of each compound tested. All SVMP experiments were repeated independently a minimum of three times.

[2] = test system: SVMP activity of Bothrops jararaca venom; details: read-out: Inhibition of SVMP enzymatic activity EC50 BJA; B. jararaca venom; mean of n ≥ 3, range in brackets
Description: as §1, §2

[3] = test system: SVMP activity of Bitis arietans venom; details: read-out: Inhibition of SVMP enzymatic activity EC50 BAR; B. arietans venom; mean of n ≥ 3, range in brackets
Description: as §1, §2

[4] = test system: SVMP activity of Crotalus atrox venom; details: read-out: Inhibition of SVMP enzymatic activity EC50 CAT; C. atrox venom; mean of n ≥ 3, range in brackets
Description: as §1, §2

[5] = test system: SVMP activity of Calloselasma rhodostoma venom; details: read-out: Inhibition of SVMP enzymatic activity EC50 CRH; C. rhodostoma venom; mean of n ≥ 3, range in brackets
Description: as §1, §2

[6] = test system: procoagulant activity of E. romani venom; details: read-out: Coagulation assay EC50 E. romani; 10 ng E. romani venom, citrated bovine plasma; mean of n ≥ 3, range in brackets
Description: (§3) This assay consists of preincubating venom (or venom vehicle control) at a species-specific dose with the compound of interest (or compound vehicle control), then adding citrated bovine plasma to the wells and activating the clotting cascade with calcium chloride. […] Compounds of interest were stamped onto 384-well plates at a volume of 0.5 μL and a concentration of 10 mM in 100% DMSO. Positive and negative control wells were stamped with 0.5 μL of 100% DMSO. To the test wells and the venom-only positive control wells, 10 μL of venom diluted to 1 μg/mL (E. romani) or 10 μg/mL (B. jararaca) in PBS was added, giving a final well amount of 10 ng (E. romani) or 100 ng (B. jararaca) per well. In the no venom negative control wells, 10 μL of PBS was added. The plates were then sealed, span briefly in a Platefuge and incubated at 37 °C for 25 min to allow venom-inhibitor interaction. While the plates were incubating, sufficient citrated bovine plasma (S0260, BioWest) to allow 20 μL/well was centrifuged at 3120 RCF for 5 min to remove any residual cellular debris and the supernatant was collected. The 384-well plates were removed from the incubator for 5 min to allow acclimation to room temperature, then 20 μL/well of 20 mM CaCl2 was added and immediately followed by the addition of 20 μL/well of centrifuged citrated bovine plasma, both via a Multidrop Combi reagent dispenser (5840330, Thermo Fisher Scientific). The plates were then read kinetically using an absorbance protocol on a CLARIOStar microplate reader at 595 nm for 60 min. […] Dose response plates were conducted identically and the % inhibition values at each dose were used to draw EC50 curves to estimate the EC50 value of each compound tested. All coagulation experiments were repeated independently a minimum of three times.

[7] = test system: procoagulant activity of B. jararaca venom; details: read-out: Coagulation assay EC50 B. jararaca; 100 ng B. jararaca venom, citrated bovine plasma; mean of n ≥ 3, range in brackets
Description: as §3

[8] = test system: SVMP activity of five viper venoms (E. romani, C. atrox, C. rhodostoma, B. jararaca, B. arietans); details: read-out: broad-spectrum inhibition of SVMP activity EC50s; range over the five venoms
Description: as §1, §2

[9] = test system: E. romani P–I, P–II and P–III SVMPs; details: P–I, P–II, P–III SVMPs; drug 10 μM (P–I, P–II), 400 nM (P–III); gel
Description: (§4) Evaluation of SVMP toxin activity of human prothrombin and fibrinogen and inhibition by test compounds was performed by SDS-PAGE degradation gel electrophoresis using venom-purified toxins. P–I, P–II and P–III SVMPs were isolated using an adaptation of the method of Howes et al. Whole E. romani venom (15 mg) was initially separated using size exclusion chromatography (SEC) on a 120 mL column of Superdex 75 (Cytiva). The P–II SVMP (22 kDa) was pure and ready to use at this stage. P–I and P–III SVMP containing peaks were separately applied to a 1 mL high resolution hydrophobic interaction chromatography (HIC) column (SOURCE 15PHE, Cytiva). […] The P–I eluted as two peaks of proteins with identical molecular weight (21 kDa) which were combined back together. The P–III-containing fraction from SEC eluted from HIC as multiple peaks of P–III SVMP isoforms, well separated from the earlier eluting L-amino acid oxidase and high molecular weight C-type lectin-like proteins. The proteins in the PIII-containing peaks were pooled back together.
Degradation of human fibrinogen was measured in a similar manner. Human fibrinogen (Merck) was added at 5 μg/reaction and incubated with the different SVMP isoforms in the presence or absence of drugs. Drug concentrations used were 10 μM for P–I and P–II SVMP and 400 nM for P–III SVMP. The reactions consisted of 200 ng SVMP isoform and the appropriate concentration of drug, which were then incubated for 30 min at 37 °C in a water bath. Five micrograms of fibrinogen were then added and the samples incubated for another hour at 37 °C, before separation by SDS-PAGE as described above.

[10] = test system: E. romani P–I and P–III SVMPs; details: drug 2 μM, gel
Description: as §4
Prothrombin degradation was measured by incubating 2 μg of human prothrombin (Hematologic Technologies INC) in the presence or absence of drug and the P–I, P–II, and P–III SVMPs. […] Briefly, drug or DMSO and 200 ng of purified SVMP isoform were incubated for 30 min at 37 °C in a water bath, after which 2 μg of human prothrombin were added and the samples incubated for another hour at 37 °C. Drug concentrations used were 2 μM for P–I and P–III SVMPs. Samples were then processed for loading onto a 4–20% SDS-PAGE gel (Biorad) and were run under reducing conditions for 45 min at 180 V. The gels were stained with Coomassie Brilliant Blue R250 and degradation profiles were visualized and images captured using a GelDoc (Biorad).

[11] = test system: E. romani venom in human whole blood; details: venom 60 ng plus drug 5 μM; mean
Description: We measured the coagulation profile of whole human blood using thromboelastography, and compared with venom stimulated, and venom and drug stimulated, clotting profiles. […] Blood samples were collected in ACD-A blood tubes. Using a ROTEM delta (Werfen) a final volume of 300 μL blood per reaction was pipetted into prewarmed cups (37 °C), with four channels per run. Whole blood was warmed for 5 min at 37 °C, during which time 12 μL of E. romani venom (5 ng/nL concentration, 60 ng dose), 15 μL of DMSO vehicle or test compounds (5 μM final concentration, 0.2% DMSO), and 20 μL of Startem reagent (CaCl2, Werfen) was prepared. The maximum incubation time of venom and inhibitors was 2 min, before 253 μL of whole blood were added and mixed before reading on the ROTEM delta. The commonly used parameters of clotting time and maximum clot firmness (MCF) were reported, from a minimum of three independent measurements per experimental group.

E. romani venom [12] = details: venom 10 μg/egg, drug 1 μg/egg topical, 6 h; in words
Description: Fertile hens eggs were supplied on day 1 post fertilization from UK supplier MedEggs Ltd. Eggs were immediately placed horizontally to incubate at 37 °C until day 5 of development. Candling was conducted to mark the position of the embryo to guide windowing. Any infertile eggs were removed at this stage. To access the embryos, all fertile eggs were then windowed under laminar flow. In brief, 6–8 mL of albumin was removed using a 23G needle. The area marking the position of the embryo was then covered with medical tape, and a dish of shell removed using sharp dissection scissors. The exposed embryo was then covered using parafilm and the egg returned to the incubator overnight. Surviving embryos were then randomly allocated into groups of n = 5. […] Treatments were given in a total volume of 10 μL, administered directly onto (i.e., topically) the vitelline vein. Embryos were returned to the incubator immediately following dosing, and then observed at 1, 2, 4, and 6 h. Survival was monitored via the observation of a heartbeat. Venom pathology was captured using a Motic SMZ 171-TLED microscope system. In brief, at each observation time point (1, 2, 4, and 6 h post envenoming) images were captured using a Moticam X5 Wi-Fi camera. To track changes across the experimental time course, the imaging position was kept consistent at each time point for individual embryos.

E. romani venom [13] = test system: E. romani venom
Description: Room conditions were set at 20–24 °C and 45–65% humidity, 12/12 h light cycles. Mice were allowed ad libitum access to Picolab 5R53 food (Lab Diet, USA) and reverse osmosis water and housed with nesting material and environmental enrichment materials.
Mice weighed 22–28 g at the start of study. Five milligram or kilogram morphine was administered subcutaneously as an analgesic 15 min prior to venom administration. […] No criteria for including or excluding animals was applied, and all data points were included in analyses. Animals were monitored for humane end points (loss of righting reflex, seizure, external hemorrhage) for 8 h to encompass the drug exposure time frame, and any animals showing such signs were immediately euthanized by rising concentrations of carbon dioxide. All observations were performed by mixed gender experimenters who were blinded to the drug group allocation. Time of death, number of deaths and number of survivors were recorded, where deaths and times of death represent implementation of humane end point-dictated euthanasia. Kaplan–Meier survival plots were generated using GraphPad Prism 9.0 (GraphPad Software, San Diego, USA).

[14] = test system: thrombin-antithrombin (TAT) complexes
Description: Blood samples were collected from mice via cardiac puncture immediately following euthanasia. Samples were centrifuged at 1400 × g for 10 min at 4 °C, and the plasma supernatant stored at −80 °C until use. Plasma TAT levels were determined using a sandwich ELISA provided as a commercial kit (Abcam, ab137994). Mouse plasma samples were diluted 1:150 using Diluent M and were run in duplicate alongside a standard curve. Each well received 50 μL diluted plasma and was incubated for 2 h at room temperature to allow for the reaction with the TAT complexes antibodies coated onto the plate. After five washes, 50 μL of biotinylated mouse TAT complexes antibodies were added to the plate and the reaction allowed to proceed for another 2 h. Following another five washes, 50 μL of a streptavidin-peroxidase conjugate were added to the plate and incubated for another 30 min. Next, 50 μL of a chromogenic substrate (3,3′,5,5′-tetramethylbenzidine) was added to the plate and the peroxidase-dependent reaction allowed to proceed until a clear blue color formed in the well. At this point 50 μL of stop solution was added and the absorbance read immediately at 450 and 570 nm. The 570 nm absorbance readings were subtracted from the 450 nm ones, and the levels of TAT complexes (ng/mL) extrapolated based on the standard curve.

[15] = test system: mouse fibrinogen and prothrombin; details: in words
Description: Mouse plasma samples were diluted 1:50 (antifibrinogen blots) and 1:30 (antiprothrombin blots) and 5 μL was run on 4–20% SDS-PAGE gels (BioRad) at 180 V for 1 h. The separated proteins were then transferred onto nitrocellulose membranes using semidry transfer on a Trans-Blot Turbo (BioRad) using the following conditions: 1.3 A, 25 V, 7 min. Blots were then stained for 5 min with Revert 700 Total Protein Stain (LICORbio) following the manufacturer’s protocol and imaged on the 700 nm channel on an Odyssey Fc Imaging System to detect protein abundance and ensure equal loading. Membranes were then destained in 0.1 M NaOH, 30% methanol for no longer than 10 min, then blocked in 5% milk TBST for 1 h. The primary antibodies: antifibrinogen (ab34269, rabbit polyclonal, Abcam) and antiprothrombin (PA5-77976, rabbit polyclonal, Thermo Fisher) were diluted 1:1,500 and 1:1,000, respectively, in 5% milk TBST. The membranes were incubated with the appropriate primary antibody for 1.5 h at room temperature, followed by three 5 min washes in TBST. Blots were then incubated for 1 h at room temperature with an IRDye 800CW donkey anti-rabbit IgG secondary antibody (1:15000, LICORbio), followed by three 5 min washes in TBS. The blots were imaged on an Odyssey Fc Imaging System at both 700 and 800 nm.

[16] = mouse
Description: (§5) The in vivo PK study was performed by ChemPartner (Shanghai, China). […] Mice had access to food and water throughout the pre- and postdose sampling period. […] Approximately 110 μL whole blood/time point (sampling at 0.083, 0.25, 0.5, 1, 2, 4, 8, and 24 h) was collected via serial bleeding in K2EDTA tube via facial vein. The blood sample was kept on ice and centrifuged (2,000 × g, 4 °C, 5 min) within 15 min postsampling. The plasma drug concentrations were determined by LC-MS/MS (ESI, Triple Quad 5500 System) on positive ion mode and using dexamethasone as internal standard. Liquid chromatography (LC) was performed using a 2.5 μm Xbridge BEH-C18 column (2.1 mm × 50 mm) at 60 °C with a rate of 0.6 mL/min. The following mobile phases were used; A: Water (+0.025% Formic acid and 1.0 mM ammonium acetate), B: Methanol (+0.025% Formic acid and 1.0 mM ammonium acetate).

in vivo = details: male, CD1, mouse, plasma, po, 20 mg/kg
Description: as §5

physchem [17] = details: organic solvent / aqueous solvent at pH 7.4, pH 7.4
Description: (§6) The DMPK properties data described in the manuscript were measured via a high-throughput platform by AstraZeneca (United Kingdom).

physchem [18] = details: aqueous medium at pH 7.4, pH 7.4, aqueous buffer
Description: as §6

in vitro [19] = details: rat, hepatocytes
Description: as §6

in vitro [20] = details: human, microsomes
Description: as §6

[21] = test system: SVMP activity of Echis romani venom; details: read-out: ERO EC50; E. romani venom; ref not given; cited from earlier work
E. romani venom [22] = details: 30 mg/kg single oral dosing; ref not given; cited from earlier work

Description for human plasma protein: as §6

For `COc1ccc(S(=O)(=O)N2CCN(S(=O)(=O)C3CC3)C[C@@H]2C(=O)NO)cc1` [compound 23, (R)-4-(Cyclopropylsulfonyl)-N-hydroxy-1-((4-methoxyphenyl)sulfonyl)piperazine-2-carboxamide], the EC50 [1] was 4.7 nM, the EC50 [2] was 10.9 nM and the EC50 [3] was 3.9 nM. The EC50 [4] was 22.9 nM, the EC50 [5] was 38.6 nM and the “Human Protein binding (%free)” value (human plasma protein) was 66 %free. For the same molecule, the EC50 [6] was 135 nM, the EC50 [7] was 13.4 nM and the EC50 [8] was 4.7 to 38.6 nM. For the same molecule, the “protection against degradation of fibrinogen” value [9] was “protected against the degradation of fibrinogen”, the “protection against prothrombin degradation” value [10] was “almost full protection” and the clotting time [11] was 8.6 min. For the same molecule, the “maximum clot firmness (MCF)” value [11] was 60.3 [SD 0.6] mm, the embryo survival (E. romani venom [12]) was “complete survival” and the “survival times vs venom-only” value (E. romani venom [13]; 90 μg venom i.p., single 20 mg/kg oral dose, p = 0.01, in words) was “significantly prolonged survival times”. The mean survival time (E. romani venom [13]; two dose oral regimen 20 mg/kg, 8 h experiment) was 420 min, the “time at which the mouse succumbed” value (E. romani venom [13]; two dose oral regimen 20 mg/kg, one of five mice) was 180 min and the “TAT levels, mean” value ([14]; single 20 mg/kg oral dose, all mice) was 18.6 ng/mL. The “TAT levels, mean” value ([14]; single 20 mg/kg oral dose, mice that died during the experiment) was 29.6 ng/mL, the “TAT levels, mean” value ([14]; single 20 mg/kg oral dose, the two survivors) was 2.1 ng/mL and the “TAT levels, mean” value ([14]; two 20 mg/kg oral doses) was 13.7 ng/mL. The “plasma prothrombin and fibrinogen profiles” value ([15]; single 20 mg/kg oral dose, surviving mice) was “intact prothrombin and fibrinogen profiles”, the plasma fibrinogen ([15]; two 20 mg/kg oral doses) was “fibrinogen was detectable in all multiply dosed animals” and the plasma prothrombin ([15]; two 20 mg/kg oral doses) was “Prothrombin was detectable in three of the four surviving mice”. The “drug level at 4 h as share of C max” value ([16]; 20 mg/kg oral, 4 h after dosing) was 8.4%, the “time for drug levels to reach their peak” value ([16]; oral dosing) was 30 min and the AUC(0-inf) (in vivo) was 450 ng·h/mL. The AUC(0-t) (in vivo) was 444 ng·h/mL, the Cmax (in vivo) was 311 ng/mL and the MRT inf (in vivo) was 1.61 h. For the same molecule, the MRT last (in vivo) was 1.49 h, the Tmax (in vivo) was 0.5 h and the concentration at 4 h (in vivo) was 26.1 ng/mL. The half-life (in vivo) was 1.41 h, the logD (physchem [17]) was 0.2 and the solubility (physchem [18]) was > 1000 µM. The hepatocyte CLint (in vitro [19]) was 13.3 µL/min/1e6 cells and the microsomal CLint (in vitro [20]) was 8.3 µL/min/mg.

In the case of `O=S(=O)(O)CC(S)CS` (stereo not shown) [DMPS, 2,3-dimercapto-1-propanesulfonic acid], the EC50 [21] is given as 1650 nM and the “oral dosing murine survival at 8 h” value (E. romani venom [22]) is given as 40%.
